The values that follow are results of earlier work, collected in US20090081312A1, “PREVENTION AND TREATMENT OF ALVEOLAR OSTEITIS” (priority 2007, published 2009).

This data set deals with bacterial cell growth. The settings on record: silver ion; B Gibbins, Ostomy Wound Management 2003.

For the molecule `[Ag+]` [silver ion, silver], the “quantity sufficient to prevent bacterial cell growth” value is recorded as “one”.
